Data reported in ChEMBL document CHEMBL1135847, “Structure-activity relationship of linear peptide Bu-His-DPhe-Arg-Trp-Gly-NH(2) at the human melanocortin-1 and -4 receptors: arginine substitution” (Bioorg Med Chem Lett, 2002).

Legend:
[1] = biological target: T1, Melanocyte-stimulating hormone receptor (Homo sapiens, UniProt Q01726); experiment: Agonist potency for human Melanocortin 1 receptor; assay type: functional
Target sequence in this assay (Q01726 whole entry): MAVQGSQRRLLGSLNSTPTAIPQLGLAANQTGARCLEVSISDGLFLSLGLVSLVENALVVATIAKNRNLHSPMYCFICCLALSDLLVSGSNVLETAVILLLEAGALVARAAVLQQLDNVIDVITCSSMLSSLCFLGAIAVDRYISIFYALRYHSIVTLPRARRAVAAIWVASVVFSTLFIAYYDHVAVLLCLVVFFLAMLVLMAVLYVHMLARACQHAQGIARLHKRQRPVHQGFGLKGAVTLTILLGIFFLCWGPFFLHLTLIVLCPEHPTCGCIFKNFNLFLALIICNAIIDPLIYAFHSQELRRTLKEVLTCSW

Melanocortin receptor 4 [2] = biological target: T2, Melanocortin receptor 4 (Homo sapiens, UniProt P32245); experiment: Agonist potency towards human Melanocortin 4 receptor; assay type: functional
T2 sequence (P32245 whole entry): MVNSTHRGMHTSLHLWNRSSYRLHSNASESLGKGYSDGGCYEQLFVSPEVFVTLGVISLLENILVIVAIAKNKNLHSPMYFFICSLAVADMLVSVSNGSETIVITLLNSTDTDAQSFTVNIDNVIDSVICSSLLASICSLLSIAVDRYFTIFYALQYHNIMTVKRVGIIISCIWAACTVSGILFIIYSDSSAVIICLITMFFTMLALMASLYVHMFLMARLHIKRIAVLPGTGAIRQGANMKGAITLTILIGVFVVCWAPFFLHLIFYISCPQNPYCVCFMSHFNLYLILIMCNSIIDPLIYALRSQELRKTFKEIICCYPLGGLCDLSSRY

[3] = pKa value was evaluated; assay type: physicochemical
Melanocortin receptor 4 [4] = biological target: T2, Melanocortin receptor 4; experiment: Agonist potency towards human Melanocortin 4 receptor at 50 uM; assay type: functional
[5] = biological target: T1, Melanocyte-stimulating hormone receptor; experiment: Agonist potency towards human Melanocortin 1 receptor at 50 uM; assay type: functional
Target sequence in this assay (Q01726 whole entry, looked up): as the sequence (Q01726 whole entry) above

| Compound | EC50 [1] [nM] | EC50 (Melanocortin receptor 4 [2]) [nM] | pKa [3] | Activity (Melanocortin receptor 4 [4]) [%] | Activity [5] [%] |
| --- | --- | --- | --- | --- | --- |
| CCCCN[C@@H](Cc1c[nH]cn1)C(=O)N[C@H](Cc1ccccc1)C(=O)N[C@@H](CCCCNC(C)C)C(=O)N[C@@H](Cc1c[nH]c2ccccc12)C(=O)NCC(N)=O | 255 | – | – | 25 | – |
| CCCCN[C@@H](Cc1cnc[nH]1)C(=O)N[C@H](Cc1ccccc1)C(=O)N[C@@H](CCCNC(N)=O)C(=O)N[C@@H](Cc1c[nH]c2ccccc12)C(=O)NCC(N)=O | 950 | 760 | – | – | – |
| CCCCN[C@@H](Cc1c[nH]cn1)C(=O)N[C@H](Cc1ccccc1)C(=O)N[C@@H](CCCN)C(=O)N[C@@H](Cc1c[nH]c2ccccc12)C(=O)NCC(N)=O | 900 | 2500 | – | – | – |
| CCCCN[C@@H](Cc1cnc[nH]1)C(=O)N[C@H](Cc1ccccc1)C(=O)N[C@@H](CCCN(C)C)C(=O)N[C@@H](Cc1c[nH]c2ccccc12)C(=O)NCC(N)=O | 350 | 3280 | – | – | – |
| CCCCN[C@@H](Cc1c[nH]cn1)C(=O)N[C@H](Cc1ccccc1)C(=O)N[C@@H](CCC/N=C(/N)N[N+](=O)[O-])C(=O)N[C@@H](Cc1c[nH]c2ccccc12)C(=O)NCC(N)=O | – | – | – | 85 | 40 |
| CCCCN[C@@H](Cc1c[nH]cn1)C(=O)N[C@H](Cc1ccccc1)C(=O)N[C@@H](Cc1c[nH]cn1)C(=O)N[C@@H](Cc1c[nH]c2ccccc12)C(=O)NCC(N)=O | 1700 | 1420 | – | – | – |

Now from value to compound, other results behind:

| EC50 [1] [nM] | EC50 (Melanocortin receptor 4 [2]) [nM] | pKa [3] | Compound | Activity (Melanocortin receptor 4 [4]) [%] | Activity [5] [%] |
| --- | --- | --- | --- | --- | --- |
| 15 | 70 | ~0 | CCCCN[C@@H](Cc1cnc[nH]1)C(=O)N[C@H](Cc1ccccc1)C(=O)N[C@@H](CCCNC(N)=NC#N)C(=O)N[C@@H](Cc1c[nH]c2ccccc12)C(=O)NCC(N)=O | – | – |
| 85 | 4800 | – | CCCCN[C@@H](Cc1cnc[nH]1)C(=O)N[C@H](Cc1ccccc1)C(=O)N[C@@H](CCCCNCc1ccccc1)C(=O)N[C@@H](Cc1c[nH]c2ccccc12)C(=O)NCC(N)=O | – | – |
| 1 | 10 | ~7 | CCCCN[C@@H](Cc1cnc[nH]1)C(=O)N[C@H](Cc1ccccc1)C(=O)N[C@@H](CCC(=O)NC(=N)N)C(=O)N[C@@H](Cc1c[nH]c2ccccc12)C(=O)NCC(N)=O | – | – |
| 10 | 20 | – | CCCCN[C@@H](Cc1cnc[nH]1)C(=O)N[C@H](Cc1ccccc1)C(=O)N[C@@H](CCCNC(=N)N)C(=O)N[C@@H](Cc1c[nH]c2ccccc12)C(=O)NCC(N)=O | – | – |
| 60 | 1670 | – | CCCCN[C@@H](Cc1c[nH]cn1)C(=O)N[C@H](Cc1ccccc1)C(=O)N[C@@H](CCCCN(C)C)C(=O)N[C@@H](Cc1c[nH]c2ccccc12)C(=O)NCC(N)=O | – | – |
